Experimental data published in patent US20030176314A1, “Compounds for the treatment of pain” (priority 2001, published 2003).

Target: T1, human α1A adrenergic receptor (Homo sapiens, UniProt P35348)
T1 construct: host or cells: LM(tk-) cells, line L-α1C
T1 sequence (P35348 1-466): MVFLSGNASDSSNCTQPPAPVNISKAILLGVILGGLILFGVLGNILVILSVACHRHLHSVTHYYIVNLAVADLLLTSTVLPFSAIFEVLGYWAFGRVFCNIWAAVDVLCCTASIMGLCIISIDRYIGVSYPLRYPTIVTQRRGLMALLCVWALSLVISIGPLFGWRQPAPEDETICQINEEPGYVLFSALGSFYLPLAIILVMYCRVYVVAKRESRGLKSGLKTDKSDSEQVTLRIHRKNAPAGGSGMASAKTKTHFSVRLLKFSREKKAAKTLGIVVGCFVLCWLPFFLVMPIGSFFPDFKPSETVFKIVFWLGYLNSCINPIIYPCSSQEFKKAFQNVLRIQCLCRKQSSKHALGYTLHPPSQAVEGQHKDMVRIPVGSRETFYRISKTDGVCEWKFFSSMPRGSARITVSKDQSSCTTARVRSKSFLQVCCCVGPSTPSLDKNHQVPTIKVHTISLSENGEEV
Assay: Binding at human α1A adrenergic receptor
Conditions: Table 8; read-out: hα1A Ki
Excerpt: α1 Human Adrenergic Receptors: To determine the binding of compounds to human α1 receptors, LM(tk−) cell lines stably transfected with the genes encoding the α1a, α1b, and α1d receptors were used. The nomenclature describing the α1 receptors was changed recently, such that the receptor formerly designated α1a is now designated α1d, and the receptor formerly designated α1c is now designated α1a. The cell lines expressing these receptors were deposited with the ATCC before the nomenclature change and reflect the subtype designations formerly assigned to these receptors. Thus, the cell line expressing the receptor described herein as the α1a receptor was deposited with the ATCC on Sep. […] The cell line expressing receptor described herein as the α1d receptor was deposited with the ATCC on Sep. […] The cell line expressing the α1b receptor is designated L-α1B, and was deposited on Sep.
The binding affinity (Ki) of these compounds were tested according to the protocols described herein at the following receptors; human α1A, α1B, α1D, α2A, α2B, and α2C adrenergic receptors; human Y1, Y2, Y4, and Y5 receptors; and N-Methyl-D-aspartic acid (NMDA) receptor channels. The binding interactions of these compounds were additionally tested at the norepinephrine (NE) transporter (NE uptake) and serotonin (5-hydroxytryptamine (5HT)) transporter (5HT uptake) according to protocols described herein

Cc1nc(NC(=N)N)nc2ccc3ccccc3c12 [Compound 1007A]
Ki: 3.27 µM
